These results are taken from patent US20140274919A1, “BORON-CONTAINING COMPOSITIONS AND METHODS THEREFOR” (VDF FutureCeuticals, Inc., priority 2011, published 2014).

Common to all, as to format: in vivo
The test system of one experiment is adiponectin. In words: Oral administration to human volunteers: blood concentration of adiponectin. Conditions: samples at 30 minute intervals vs time 0, FIG. 2. As for the experimental part: In this instance the effect of oral administration of CFB on the blood concentration of adiponectin, along with the effect of administration of sodium borate (Na borate), and a placebo compound was measured. Blood samples were taken at a time 0 prior to administration in order to establish a baseline concentration for each individual. Additional samples were taken at 30 minute intervals, and the concentration of adiponectin compared to the baseline level determined for each individual. […] The mechanism for this increase in adiponectin concentration in the blood is not known, but it is contemplated that it may due to increased synthesis, increased release of stored adiponectin, or a combination of these. Therefore, in some embodiments of the inventive subject matter blood concentrations of adiponectin may be increased by about 1%, 2%, 3%, 4%, 5%, 10%, 15%, 20%, 25%, 30%, or more relative to pretreatment values following administration of a boro-carbohydrate complex.
(§1) In all of the above oral administrations, the human volunteers were provided with orally administered single daily doses of 5-50 mg of calcium fructoborate for at least 14 days. […]

The subject of the next experiment is total osteocalcin. In words: Oral administration to human volunteers: total osteocalcin in blood. As to conditions: data not shown.
The subject of experiment [1] is under-carboxylated osteocalcin. In words: Oral administration to human volunteers: under-carboxylated osteocalcin in blood (Cusabio immunoassay). As to conditions: single daily doses of 5-50 mg, samples after 7 and 14 days vs day 0, FIG. 1. As for the experimental part:
In this instance the effect of administration of a CFB on the concentration of under-carboxylated osteocalcin in the blood of human volunteers, along with the effect of administration of sodium borate (Na borate) and a placebo compound was measured. Blood samples were taken at day 0 prior to administration in order to establish a baseline concentration for each individual. Additional samples were taken after 7 and 14 days of treatment. Under-carboxylated osteocalcin was characterized using a commercially available immunoassay from Cusabio Biotech Co. LTD (Newark, Del.) according to the manufacturer's directions, and the percentage change from pretreatment concentrations of under-carboxylated osteocalcin were calculated. […] In some embodiments of the inventive subject matter the percentage of under-carboxylated osteocalcin (including non-carboxylated osteocalcin) may thus be reduced by about 1%, 2%, 3%, 4%, 5%, 10%, 15%, 20%, 25%, 30%, 35%, 40%, 45%, 50% or more relative to pretreatment values following oral administration of CFB.
as §1

A further experiment concerns C-reactive protein (CRP). Nature of the experiment: Oral administration to human volunteers: circulating C-reactive protein. As to conditions: FIG. 4. The method, then:
(§2) In all of the above oral administrations, the human volunteers were provided with orally administered single daily doses of 5-50 mg of calcium fructoborate for at least 14 days. However, it should be noted that the orally administered compositions may vary considerably, so long as at least 0.1 mg, more typically at least 1.0 mg, and most typically at least 10-100 mg of the compound are administered to the human (or other mammal). Thus, typical administrations will provide 0.001-0.01 mg/kg, more typically 0.01-0.1 mg/kg, and most typically 0.1-5.0 mg/kg (and in some cases even higher) of the boro-carbohydrate compound per day. Such administration may be performed in numerous formats, and all types of formulations comprising contemplated compounds are deemed suitable for use herein, including as nutritional supplement, as ingredient in a snack (e.g., energy bar, fruit leather, etc.), a cereal, a beverage, etc.
Additionally, it is contemplated that compounds and compositions according to the inventive subject matter may influence various parameters associated with an inflammatory response, as YKL-40 has been proposed as a diagnostic marker for inflammation. […] Thus, it should be appreciated that contemplated compositions are especially advantageous in reduction of inflammatory markers and conditions associated with increased levels of such markers.

The next experiment deals with YKL-40. In words: Oral administration to human volunteers: YKL-40 in blood (Quidel immunoassay). As to conditions: samples after 7 and 14 days vs Day 0, FIG. 3. The method, then: as §2, with “Such administration may be performed in numerous formats, and all types of formulations comprising contemplated compounds are deemed suitable for use herein, including as nutritional supplement, as ingredient in a snack (e.g., energy bar, fruit leather, etc.), a cereal, a beverage, etc.” left out
In this instance the effect of the administration of CFB on the concentration of YKL-40 in the blood of human volunteers, along with the effect of administration of sodium borate (Na borate) and a placebo compound, was measured. […]
Additional samples were taken after 7 and 14 days of treatment, and the concentration of YKL-40 compared to the baseline level determined for each individual. YKL-40 was characterized using a commercially available immunoassay from Quidel (San Diego, Calif.) according to the manufacturer's directions, and the percentage change from pretreatment concentrations of YKL-40 were calculated. […]

As to `O.O.O.O.O.O.O.O.O.O.[Na+].[Na+].[O-]B1OB2OB([O-])OB(O1)O2` [sodium borate, reference compound], the “blood concentration of adiponectin compared to baseline” value in the experiment with adiponectin was “similar, but markedly reduced, effect”.
For the compound calcium fructoborate [CFB], the “blood concentration of adiponectin compared to baseline” value with adiponectin was “rapid and sustained increase”. The “effect on total osteocalcin” value in the experiment on total osteocalcin is “no discernable effect”. The “concentration of under-carboxylated osteocalcin in blood, percentage change from pretreatment” value in experiment [1] is “significant reduction”. The “concentration of circulating CRP” value in the experiment with C-reactive protein (CRP) was “substantially greater effect on reducing the concentration of CRP than sodium borate”. Also, the “concentration of YKL-40 in blood, percentage change from pretreatment” value in the experiment with YKL-40 is on record as “significant reduction”.
